In PubChem BioAssay (NCI) one finds TGI data, which are given here for 18 compounds.

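Assay format: 96-well plates, 48-hour exposure. Definition used: TGI = concentration required for complete inhibition of growth.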 Some results are limits rather than exact numbers.

Holding throughout (assay): NCI tumour cell line growth inhibition, 48 h
The test system of test [1] is HOP-92 NSCLC.
Test [2] relates to SN12C renal.
Test [3] deals with SK-OV-3 ovarian.
For test [4], the system named is A549 NSCLC.
Test [5] concerns T-47D breast.
In test [6] the test system is NCI-H522 lung.
Test [7] relates to NCI-H460 lung.
For test [8], the system named is SF-539 CNS.
Test [9] relates to 786-0 renal.
The test system of test [10] is CAKI-1 renal.
In test [11] the test system is SNB-19 CNS.
In test [12] the test system is LOX IMVI melanoma.
Test [13] has as its system MDA-MB-231 breast.
Test [14] concerns HS 578T breast.
In test [15] the test system is UACC-257 melanoma.
In test [16] the test system is COLO 205 colon.
The subject of test [17] is BT-549 breast.

In the case of `CC(C(O)c1ccccc1)C(O)(C(F)(F)F)C(F)(F)F` (stereo unspecified), the TGI in test [1], in test [2], in test [3], in test [4], in [5] and in test [6] was over 100 µM in each case. The TGI in test [7], in test [8], in [9], in [10], in test [11] and in [12] was over 100 µM throughout. Besides, the TGI in test [13], in test [14], in [15] and in test [16] was over 100 µM each time.
As for `CC(C)/C(Cl)=N\OC(=O)Nc1cccc(Cl)c1`, the TGI was 32.4 µM in test [2]; over 58.2 µM in test [3]; 35.7 µM in test [4]; 68.5 µM in [5]; 3.33 µM in test [6]; 18.6 µM in test [7]. Besides, the TGI in [8] was 36.8 µM; in test [9] it was 29.1 µM; in [10], 34.8 µM; in [11] it was over 100 µM; in test [12], 8.71 µM; in [13] it was 30.3 µM. Also, the figures for the TGI in test [14], in test [15] and in test [16] were 72.8 µM, 26.8 µM and 4.61 µM, respectively.
Take `CCC(=O)Nc1ccc(N2C(=O)C(Cl)C2c2ccc(SC)cc2)cc1` (stereo unspecified): the TGI in test [1], in [2], in test [3], in [4], in [5] and in test [6] was over 100 µM throughout. In addition, the TGI in test [7], in test [8], in test [9], in [10], in [11] and in [12] was over 100 µM each time. For the same compound, the TGI in test [14], in test [15], in test [16] and in [17] was over 100 µM each time.
As for `Cc1nc2c(=O)n(C)ncc2[nH]1`, the TGI in test [2], in [4], in test [5], in test [7], in [8] and in [9] was over 100 µM in each case. Moreover, the TGI in [10], in [11], in [13], in [14], in test [15] and in [16] was over 100 µM each time. Further, in [17], the TGI is over 100 µM.
Regarding `CCCC(=O)OC1C(CO)OC(n2cc(F)c(=O)[nH]c2=O)C1F` (stereo unspecified), the TGI in [1], in [2], in test [3], in test [4], in [5] and in test [6] was over 100 µM throughout. In addition, the TGI in [8], in test [9], in test [10], in [12], in [14] and in test [15] was over 100 µM throughout. In addition, the TGI in test [16] and in test [17] was over 100 µM in each case.
Regarding `C=C(Br)CNC(=O)CCC(=O)NCC(=C)Br`, the TGI in test [2], in test [3], in test [4], in [5], in test [6] and in test [7] was over 100 µM throughout. The TGI in test [8], in test [9], in [10], in [11], in test [12] and in test [13] was over 100 µM in each case. The TGI in test [14], in test [15] and in [16] was over 100 µM in each case.
In the case of `BrC(c1cccc2ccccc12)c1cccc2ccccc12`, the TGI in [1] is 28.8 µM; in test [2], 27.4 µM; in test [4], over 100 µM; in test [5], over 100 µM; in test [6], 32.3 µM; in test [7] it was 30.4 µM. In addition, the TGI was 28.2 µM in test [9]; 50.1 µM in test [10]; over 100 µM in [11]; 30.1 µM in [12]; 28 µM in test [13]; 53.3 µM in test [15]. The compound also gave a TGI in test [17] of 39.3 µM.
Regarding `COc1ccc2nc(-c3ccc(O)cc3)sc2c1`, the TGI in [2] is 39.5 µM; in test [3], 91.2 µM; in test [4], over 100 µM; in [5] it was 36.7 µM; in test [6], 31.2 µM; in test [7] it was over 100 µM. The TGI in test [8] is 37.1 µM; in test [9] it was 29.1 µM; in test [10] it was 57.5 µM; in test [11] it was over 100 µM; in test [12] it was 44.9 µM; in test [13] it was 46.9 µM. For the same compound, the TGI is 39 µM in test [15], 44.6 µM in [16] and 36.3 µM in [17].
On to `C[C@@H]1CC[C@@H]2[C@@H](C1)O[C@@H]([C@H](C)OCc1ccccc1)SC2(C)C`, for which the TGI was 42.4 µM in test [2]; over 100 µM in [3]; over 100 µM in [4]; 32.9 µM in [5]; 40.2 µM in test [6]; 53.5 µM in test [7]. Also, the TGI in test [8] was over 100 µM; in [9], 62.1 µM; in test [10] it was over 100 µM; in test [11], 36.8 µM; in test [12] it was 32.8 µM; in test [13] it was 40.1 µM. Besides, the figures for the TGI in test [15], in test [16] and in test [17] were 73.3 µM, 34 µM and over 100 µM, respectively.
In the case of `N#Cc1ccc(-n2c3ccccc3c3ccc4c(c32)C(=O)C=CC4=O)cc1`, the TGI in test [2] is 14.2 µM; in test [3], 27.3 µM; in test [4], 38.4 µM; in [5], over 100 µM; in test [6], 1.19 µM; in [7], 44.2 µM. Moreover, the TGI in test [8] is 18.5 µM; in test [9], 3.16 µM; in [10], 2.72 µM; in test [11], 26.6 µM; in test [12], over 25.4 µM; in test [13] it was 8.25 µM. The TGI in test [14] was determined as 39.3 µM; in test [15], 13.9 µM; in test [16], 10.5 µM; in test [17], 25.3 µM.
On to `CC(C)(C)OC(=O)N1C(c2cccnc2)=CC[C@H]2C3CC=C(c4cccnc4)[C@@]3(C)CC[C@@H]21` (stereo partly specified), for which the TGI in [1] turned out to be 8.34 µM; in test [2], 13 µM; in [3], 15 µM; in test [4], 12.2 µM; in test [5], 29.8 µM; in [6], 11.9 µM. For the same compound, the TGI in test [7] was 14.1 µM; in [8], 14.8 µM; in [9], 16.4 µM; in test [10], 30.2 µM; in test [11], 17.2 µM; in test [12] it was 8.41 µM. Besides, the TGI in [14] turned out to be 24.7 µM; in test [15], 10.6 µM; in test [16], 3.19 µM; in test [17] it was 16.3 µM.
As for `CCOC(=O)c1ccc(NCC#CCN2CCCCC2)cc1`, the TGI in [1], in test [2], in test [3], in test [4], in test [5] and in [8] was over 100 µM in each case. The TGI in test [9], in test [11], in [12], in test [13], in test [14] and in test [16] was over 100 µM each time. Also, in test [17], the TGI is over 100 µM.
`CCOC(=O)c1ccc(N=c2sc3ccccc3nc2Nc2ccc(C(=O)OCC)cc2)cc1`: the TGI in [1] was over 100 µM; in test [2] it was over 100 µM; in test [3] it was over 100 µM; in test [4], over 100 µM; in test [5] it was over 100 µM; in [6] it was 77.6 µM. Further, the TGI in test [7] is over 100 µM; in test [8] it was over 100 µM; in test [9], 64.8 µM; in [10] it was over 100 µM; in test [11] it was over 100 µM; in test [12], over 100 µM. In addition, the TGI in test [13], in test [14], in test [15] and in [16] was over 100 µM throughout.
As to `Oc1ccc2c(c1)-c1c(c3ccccc3n1CCN1CCOCC1)CC2`, the TGI in test [2] is over 100 µM; in test [3], 85.2 µM; in [5] it was over 100 µM; in test [7], over 100 µM; in test [8], over 100 µM; in [9], over 100 µM. Besides, the TGI in test [10] was over 100 µM; in test [11], over 100 µM; in test [12], over 100 µM; in test [13], over 100 µM; in [14] it was over 100 µM; in test [15] it was 84.6 µM. The TGI in test [16] and in [17] was over 100 µM throughout.
On to `CC(=O)O[C@H]1[C@H](OC(=O)CC(C)(O)CC(=O)O)C[C@]2(C)C3=C(CCC2C1(C)C)[C@]1(C)CC[C@H]([C@H]2CC[C@H](C(C)(C)O)OC2O)[C@@]1(C)[C@@H](O)C3` (stereo partly specified), for which the TGI in test [1] turned out to be 31.1 µM; in test [2], 32.1 µM; in test [3], 30.6 µM; in test [4] it was 98 µM; in test [5], 40.2 µM; in test [7] it was 28.6 µM. In addition, the TGI in test [9] amounted to 37.3 µM; in [10], 36.7 µM; in [11] it was 33.6 µM; in test [12], 35.9 µM; in test [13], 32.4 µM; in test [14], 41.9 µM. Further, the TGI in test [15] is 35.4 µM; in [17] it was 29 µM.
As to `Cn1c2ccccc2c(=O)c2cccc(C(=O)NC(CCC(N)=O)C(=O)O)c21` (stereo unspecified), the TGI in [2], in test [3], in test [4], in test [5], in [7] and in [8] was over 100 µM in each case. Further, the TGI in [9], in test [10], in test [11], in test [12], in [13] and in test [14] was over 100 µM in each case. Further, the TGI in [15], in test [16] and in [17] was over 100 µM throughout.
In the case of `CO/N=C(\C)CCC#Cc1ccccc1C(=O)OC`, the TGI in test [2], in test [3], in test [4], in test [5], in [7] and in test [8] was over 10 µM each time. Moreover, the TGI in test [9], in [10], in test [11], in [12], in test [13] and in [14] was over 10 µM throughout. Further, the TGI in test [15], in test [16] and in test [17] was over 10 µM in each case.
Consider `COc1ccc2c(c1)CCc1c-2n(CCN2CCCCC2)c2ccc(OC)cc12`, for which the TGI in [2], in test [3], in test [4], in test [5], in test [6] and in test [7] was over 100 µM throughout. The TGI in test [9], in [10], in test [11], in test [12], in [13] and in [14] was over 100 µM each time. Further, the TGI in test [15], in test [16] and in test [17] was over 100 µM throughout.
